Experimental data: ChEMBL document CHEMBL5241130, “Integrating a phenotypic screening with a structural simplification strategy to identify 4-phenoxy-quinoline derivatives to potently disrupt the mitotic localization of Aurora kinase B” (Bioorg Med Chem, 2023)
The source made the active and inactive calls. No cut-off for these calls is given here.

What was measured:
[1] = Volume of distribution at steady state in Wistar rat at 2 mg/kg, iv measured after 24 hrs by LC-MS/MS analysis; assay type: ADME, organism-based; details: in vivo, read-out: Vdss
[2] = Toxicity in BALB/c nude mouse xenografted with human HCT-116 cells assessed as body weight at 50 mg/kg, po bid for 7 days; assay type: organism-based; details: in vivo, 168 h, time 7 day
[3] = biological target: Tyrosine-protein kinase ABL1 (Homo sapiens) (UniProt P00519); experiment: Inhibition of human recombinant ABL1 at 2 uM by KINOMEscan assay
Chain of Tyrosine-protein kinase ABL1 (Homo sapiens) (P00519 whole entry): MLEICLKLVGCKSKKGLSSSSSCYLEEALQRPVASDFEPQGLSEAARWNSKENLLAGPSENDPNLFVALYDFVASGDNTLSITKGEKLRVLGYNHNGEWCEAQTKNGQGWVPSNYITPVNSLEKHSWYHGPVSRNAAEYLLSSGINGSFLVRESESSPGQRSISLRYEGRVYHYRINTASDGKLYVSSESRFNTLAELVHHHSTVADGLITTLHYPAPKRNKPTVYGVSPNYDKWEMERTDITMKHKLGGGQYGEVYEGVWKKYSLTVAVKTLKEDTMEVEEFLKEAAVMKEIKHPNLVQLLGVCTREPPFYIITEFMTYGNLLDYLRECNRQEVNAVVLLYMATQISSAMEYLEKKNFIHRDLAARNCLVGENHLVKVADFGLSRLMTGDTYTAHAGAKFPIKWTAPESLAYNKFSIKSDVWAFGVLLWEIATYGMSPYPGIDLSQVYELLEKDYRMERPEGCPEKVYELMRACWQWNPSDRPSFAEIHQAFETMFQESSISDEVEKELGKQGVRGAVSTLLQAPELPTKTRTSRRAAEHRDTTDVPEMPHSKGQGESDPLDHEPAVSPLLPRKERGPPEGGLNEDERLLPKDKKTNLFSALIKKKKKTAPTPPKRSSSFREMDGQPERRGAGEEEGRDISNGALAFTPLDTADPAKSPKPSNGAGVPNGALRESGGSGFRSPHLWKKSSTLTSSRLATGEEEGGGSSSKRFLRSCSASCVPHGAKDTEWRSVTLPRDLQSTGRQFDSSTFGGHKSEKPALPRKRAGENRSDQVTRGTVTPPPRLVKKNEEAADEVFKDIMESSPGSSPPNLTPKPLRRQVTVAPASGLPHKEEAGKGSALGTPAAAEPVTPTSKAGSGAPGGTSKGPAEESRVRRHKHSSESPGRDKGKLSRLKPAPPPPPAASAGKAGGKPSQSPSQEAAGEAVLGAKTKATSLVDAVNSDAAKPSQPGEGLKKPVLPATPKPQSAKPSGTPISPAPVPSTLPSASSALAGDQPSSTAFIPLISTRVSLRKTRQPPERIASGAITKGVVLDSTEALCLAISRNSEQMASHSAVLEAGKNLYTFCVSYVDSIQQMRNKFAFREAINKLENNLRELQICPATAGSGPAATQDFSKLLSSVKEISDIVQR

[4] = Apparent volume of distribution in Wistar rat at 20 mg/kg, po measured for 24 hrs by LC-MS/MS analysis; assay type: ADME, organism-based; details: in vivo
[5] = biological target: Aurora kinase B (Homo sapiens) (UniProt Q96GD4); experiment: Disruption of mitotic localization of AURKB in human RPE-MYC H2B-GFP cells assessed as induction of mitotic arrest measured after 24 hrs by fluorescence high content cell imaging analysis; assay type: cell-based
Chain of Aurora kinase B (Homo sapiens) (Q96GD4 whole entry): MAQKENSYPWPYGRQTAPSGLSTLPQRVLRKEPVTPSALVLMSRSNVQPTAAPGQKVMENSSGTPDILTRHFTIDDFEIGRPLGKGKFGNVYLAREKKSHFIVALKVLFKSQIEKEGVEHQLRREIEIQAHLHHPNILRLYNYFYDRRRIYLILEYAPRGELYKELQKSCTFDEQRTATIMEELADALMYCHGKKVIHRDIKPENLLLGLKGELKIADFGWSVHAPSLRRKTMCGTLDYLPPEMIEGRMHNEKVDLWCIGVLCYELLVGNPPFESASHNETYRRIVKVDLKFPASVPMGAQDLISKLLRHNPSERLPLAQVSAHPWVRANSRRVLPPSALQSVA

[6] = biological target: Aurora kinase B (Homo sapiens) (UniProt Q96GD4); experiment: Inhibition of AURKB (unknown origin) by bio-chip based analysis
[7] = biological target: Aurora kinase B (Homo sapiens) (UniProt Q96GD4); experiment: Disruption of mitotic localization of AURKB in human RPE-MYC cells expressing BCL2 assessed as disruption of PLK1 localization at spindle mid-zone at 40 nM measured after 6 hrs by immunofluorescence staining analysis; assay type: cell-based
Mus musculus = experiment: Induction of polyploidy in BALB/c nude mouse xenografted with human HCT-116 cells assessed as increase in polyploid cells in tumor at 50 mg/kg, po bid for 7 days by immunohistochemical staining based analysis relative to control; assay type: functional; details: time 7 day
[8] = (§1) Ratio of drug uptake in tumor of BALB/c nude mouse xenografted with human HCT-116 cells at 50 mg/kg, po bid for 7 days and measured at 6 hrs post-last drug administration to MEC for Disruption of mitotic localization of AURKB in human RPE-MYC H2B-GFP cells assessed as induction of polyploidy
[9] = Plasma concentration in BALB/c nude mouse xenografted with human HCT-116 cells at 50 mg/kg, po bid for 7 days and measured at 12 hrs post-last drug administration by LC-MS/MS analysis; assay type: ADME, organism-based; details: time 7 day
[10] = Drug degradation in PBS buffer at pH 7.4 measured after 72 hrs by LC-MS analysis; assay type: physicochemical; details: read-out: Drug degradation
[11] = Drug degradation in HCl buffer at pH 2.2 measured after 72 hrs by LC-MS analysis; assay type: physicochemical; details: read-out: Drug degradation
[12] = biological target: Serine/threonine-protein kinase PLK3 (Homo sapiens) (UniProt Q9H4B4); experiment: Inhibition of PLK3 (unknown origin) by bio-chip based analysis
[13] = as §1, with “disruption” for “Disruption”, “mitotic arrest measured after 24 hrs” for “polyploidy”
[14] = MRT (0 to infinity) in Wistar rat at 20 mg/kg, po by LC-MS/MS analysis; assay type: ADME, organism-based; details: in vivo
[15] = biological target: Aurora kinase B (Homo sapiens) (UniProt Q96GD4); experiment: Disruption of mitotic localization of AURKB in human RPE-MYC cells expressing BCL2 assessed as disruption of MKLP1 localization at spindle mid-zone at 40 nM measured after 6 hrs by immunofluorescence staining analysis; assay type: cell-based
SW480 = experiment: Cytotoxicity against human SW480 cells assessed as cell growth inhibition incubated for 3 days by MTT assay; assay type: functional, cell-based; details: time 3.0 day
[16] = biological target: Aurora kinase B (Homo sapiens) (UniProt Q96GD4); experiment: Inhibition of AURKB in human RPE-MYC H2B-GFP cells assessed as inhibition of histone H3 phosphorylation at Ser10 residue at 8XMEC measured after 6 hrs by immunofluorescence staining analysis; assay type: cell-based
[17] = biological target: Mast/stem cell growth factor receptor Kit (Homo sapiens, UniProt P10721); experiment: Inhibition of c-Kit (unknown origin); assay type: toxicity
Chain of Mast/stem cell growth factor receptor Kit (P10721 whole entry): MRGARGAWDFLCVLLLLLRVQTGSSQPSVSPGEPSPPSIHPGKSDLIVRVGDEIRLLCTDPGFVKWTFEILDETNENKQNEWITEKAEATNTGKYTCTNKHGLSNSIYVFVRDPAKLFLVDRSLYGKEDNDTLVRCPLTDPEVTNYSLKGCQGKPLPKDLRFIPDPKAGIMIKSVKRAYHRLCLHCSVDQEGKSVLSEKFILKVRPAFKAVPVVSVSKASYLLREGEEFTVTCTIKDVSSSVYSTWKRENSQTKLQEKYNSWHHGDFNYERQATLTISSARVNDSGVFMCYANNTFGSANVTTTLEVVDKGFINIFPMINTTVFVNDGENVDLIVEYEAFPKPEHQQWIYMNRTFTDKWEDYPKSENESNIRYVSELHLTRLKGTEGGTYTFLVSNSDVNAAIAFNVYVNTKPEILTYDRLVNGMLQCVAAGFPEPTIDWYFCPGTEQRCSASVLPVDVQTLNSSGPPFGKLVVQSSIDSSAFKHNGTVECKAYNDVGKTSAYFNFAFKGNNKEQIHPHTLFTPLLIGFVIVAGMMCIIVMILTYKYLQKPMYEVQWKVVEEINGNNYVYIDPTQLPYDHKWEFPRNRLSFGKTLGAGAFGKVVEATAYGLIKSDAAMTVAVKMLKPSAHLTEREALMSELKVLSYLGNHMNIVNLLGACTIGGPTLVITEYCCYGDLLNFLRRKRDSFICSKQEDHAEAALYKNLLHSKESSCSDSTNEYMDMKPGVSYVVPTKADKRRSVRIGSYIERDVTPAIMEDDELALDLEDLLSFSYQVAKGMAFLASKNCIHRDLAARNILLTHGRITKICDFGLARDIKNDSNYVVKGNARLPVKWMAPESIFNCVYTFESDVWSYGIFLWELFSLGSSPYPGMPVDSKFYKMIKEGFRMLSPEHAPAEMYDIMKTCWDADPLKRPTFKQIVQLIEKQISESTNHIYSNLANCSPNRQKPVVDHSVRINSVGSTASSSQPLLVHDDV

[18] = Kinetic solubility of the compound in HCl buffer at pH 2.2 measured after 72 hrs by LC-MS analysis; assay type: physicochemical; details: read-out: Kinetic_solubility
[19] = test system: Tyrosine-protein kinase ABL1 (Homo sapiens), P00519 [F317L]; experiment: Inhibition of human recombinant ABL1 F317L mutant at 2 uM by KINOMEscan assay
Chain of Tyrosine-protein kinase ABL1 (Homo sapiens), P00519 [F317L] (P00519 whole entry F317L): as the sequence (P00519 whole entry) above, with F317L counted along it

[20] = biological target: Aurora kinase B (Homo sapiens) (UniProt Q96GD4); experiment: Disruption of mitotic localization of AURKB in human RPE-MYC H2B-GFP cells assessed as induction of polyploidy by fluorescence high content cell imaging analysis; assay type: cell-based
[21] = biological target: Mitotic checkpoint serine/threonine-protein kinase BUB1 (Homo sapiens) (UniProt O43683); experiment: Inhibition of Bub1 (unknown origin) by bio-chip based analysis
[22] = Clearance in Wistar rat at 20 mg/kg, po measured for 24 hrs by LC-MS/MS analysis; assay type: ADME, organism-based; details: in vivo
[23] = biological target: Aurora kinase B (Homo sapiens) (UniProt Q96GD4); experiment: Inhibition of AURKB in human RPE-MYC cells expressing BCL2 assessed as inhibition of histone H3 phosphorylation at Ser10 residue at 40 nM measured after 6 hrs by immunofluorescence staining analysis; assay type: cell-based
[24] = Cmax in Wistar rat at 20 mg/kg, po measured for 24 hrs by LC-MS/MS analysis; assay type: ADME, organism-based; set-up: time 24 hrs, dose 20 mg/kg, route po; details: in vivo
[25] = biological target: Aurora kinase B (Homo sapiens) (UniProt Q96GD4); experiment: Disruption of kinetochore localization of AURKB during anaphase of human RPE-MYC cells expressing BCL2 at 40 nM measured after 6 hrs by immunofluorescence staining analysis; assay type: cell-based
[26] = MRT (0 to infinity) in Wistar rat at 2 mg/kg, iv by LC-MS/MS analysis; assay type: ADME, organism-based; details: in vivo
[27] = biological target: Serine/threonine-protein kinase PLK4 (Homo sapiens) (UniProt O00444); experiment: Inhibition of PLK4 (unknown origin) by bio-chip based analysis
Chain of Serine/threonine-protein kinase PLK4 (Homo sapiens) (O00444 whole entry): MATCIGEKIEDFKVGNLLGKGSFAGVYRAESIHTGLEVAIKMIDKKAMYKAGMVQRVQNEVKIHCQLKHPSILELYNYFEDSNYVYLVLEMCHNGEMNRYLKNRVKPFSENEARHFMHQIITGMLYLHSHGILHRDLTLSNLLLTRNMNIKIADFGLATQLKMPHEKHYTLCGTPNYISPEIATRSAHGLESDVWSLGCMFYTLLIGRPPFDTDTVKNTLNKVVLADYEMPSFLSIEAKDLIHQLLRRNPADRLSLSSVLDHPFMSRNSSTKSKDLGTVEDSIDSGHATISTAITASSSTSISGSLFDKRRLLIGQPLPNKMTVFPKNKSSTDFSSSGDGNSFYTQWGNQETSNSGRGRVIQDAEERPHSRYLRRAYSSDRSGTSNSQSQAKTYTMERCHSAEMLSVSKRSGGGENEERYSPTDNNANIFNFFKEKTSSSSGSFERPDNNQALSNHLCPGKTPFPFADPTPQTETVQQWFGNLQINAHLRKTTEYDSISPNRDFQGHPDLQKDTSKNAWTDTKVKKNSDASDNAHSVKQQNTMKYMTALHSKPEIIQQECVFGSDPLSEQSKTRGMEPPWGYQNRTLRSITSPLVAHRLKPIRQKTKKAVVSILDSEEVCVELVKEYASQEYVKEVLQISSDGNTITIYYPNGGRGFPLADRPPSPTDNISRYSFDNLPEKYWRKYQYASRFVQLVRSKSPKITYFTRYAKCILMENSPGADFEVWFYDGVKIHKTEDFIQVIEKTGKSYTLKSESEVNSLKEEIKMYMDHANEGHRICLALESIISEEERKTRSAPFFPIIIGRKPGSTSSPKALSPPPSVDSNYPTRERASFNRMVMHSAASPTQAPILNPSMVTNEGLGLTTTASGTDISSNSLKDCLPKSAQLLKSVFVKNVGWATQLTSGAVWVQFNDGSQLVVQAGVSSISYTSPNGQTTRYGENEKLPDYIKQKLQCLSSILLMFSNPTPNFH

[28] = Clearance in Wistar rat at 2 mg/kg, iv measured after 24 hrs by LC-MS/MS analysis; assay type: ADME, organism-based; details: in vivo
[29] = Oral bioavailability in Wistar rat at 20 mg/kg measured for 24 hrs by LC-MS/MS analysis; assay type: ADME, organism-based; details: in vivo
[30] = Drug degradation in human plasma at 1 to 10 uM incubated for 2 hrs by LC-MS analysis; assay type: ADME, cell-free; details: dose 1-10 µM, read-out: Drug degradation
[31] = biological target: Receptor-type tyrosine-protein kinase FLT3 (Homo sapiens, UniProt P36888); experiment: Inhibition of FLT3 (unknown origin); assay type: toxicity
Chain of Receptor-type tyrosine-protein kinase FLT3 (P36888 whole entry): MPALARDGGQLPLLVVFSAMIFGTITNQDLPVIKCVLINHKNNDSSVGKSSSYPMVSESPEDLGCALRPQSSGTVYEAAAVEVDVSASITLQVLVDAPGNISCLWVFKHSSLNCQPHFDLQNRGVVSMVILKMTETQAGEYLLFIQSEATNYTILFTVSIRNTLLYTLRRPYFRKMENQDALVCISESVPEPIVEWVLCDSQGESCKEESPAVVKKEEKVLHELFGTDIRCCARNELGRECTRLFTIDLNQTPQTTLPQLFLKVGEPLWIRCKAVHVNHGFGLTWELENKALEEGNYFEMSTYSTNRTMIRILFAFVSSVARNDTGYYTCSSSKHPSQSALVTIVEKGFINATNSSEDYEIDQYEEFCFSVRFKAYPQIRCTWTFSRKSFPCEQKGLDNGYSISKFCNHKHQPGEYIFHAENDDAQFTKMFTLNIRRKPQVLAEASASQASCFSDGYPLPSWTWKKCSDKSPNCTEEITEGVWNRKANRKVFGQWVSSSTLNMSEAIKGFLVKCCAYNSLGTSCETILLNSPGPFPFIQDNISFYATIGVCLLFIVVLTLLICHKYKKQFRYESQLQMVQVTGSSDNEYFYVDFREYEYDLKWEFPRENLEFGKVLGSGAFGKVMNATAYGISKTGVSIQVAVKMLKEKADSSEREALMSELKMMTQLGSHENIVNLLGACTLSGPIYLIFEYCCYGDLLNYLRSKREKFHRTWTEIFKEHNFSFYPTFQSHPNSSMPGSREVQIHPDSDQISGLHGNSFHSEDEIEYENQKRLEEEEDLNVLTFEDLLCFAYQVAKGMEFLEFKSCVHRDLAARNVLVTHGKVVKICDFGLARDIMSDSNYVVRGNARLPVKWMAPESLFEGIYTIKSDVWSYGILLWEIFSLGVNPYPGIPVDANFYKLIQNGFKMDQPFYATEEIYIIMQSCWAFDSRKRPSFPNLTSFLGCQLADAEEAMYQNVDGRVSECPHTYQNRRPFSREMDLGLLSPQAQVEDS

[32] = Apparent volume of distribution in Wistar rat at 2 mg/kg, iv measured after 24 hrs by LC-MS/MS analysis; assay type: ADME, organism-based; details: in vivo, read-out: Vz
[33] = Lipophilicity, log D of the compound in Octanol and PBS buffer at pH 7.4 incubated for 24 hrs under shaking condition followed by incubation for 1 hr without shaking by LC-MS analysis; assay type: physicochemical
MDA-MB-231 = experiment: Cytotoxicity against human MDA-MB-231 cells assessed as cell growth inhibition incubated for 3 days by MTT assay; assay type: functional, cell-based; details: time 3.0 day

SMILES: COc1cc(NC(C)=O)cc(Oc2ccnc3ccc(OC)cc23)c1
- Vd [1]: 3.7 L/kg
- Activity [2]: Non-Toxic
- inhibition [3]: Active
- Vz [4]: 15.41 L/kg
- MEC [5]: 0.01 µM
- inhibition [6]: inactive
- Activity [7]: Active
- fold change (FC) (Mus musculus): 1.7
- Ratio [8]: 70
- concentration at 168 h [9]: 3.27 ng/mL
- degraded at 72 h [10]: 0%
- degraded at 72 h [11]: 0%
- inhibition [12]: inactive
- Ratio [13]: 70
- MRT inf [14]: 2.83 h
- Activity [15]: Active
- Activity (SW480): Active
- inhibition [16]: < 40%
- inhibition (INH) [17]: Not Active
- solubility kinetic at 72 h [18]: > 190 µM
- inhibition [19]: Active
- MEC [20]: 0.01 µM
- inhibition [21]: inactive
- CL/F [22]: 54.7 mL/min/kg
- inhibition [23]: inactive
- Cmax [24]: 3140 ng/mL
- Activity [25]: Active
- MRT inf [26]: 2.09 h
- inhibition [27]: inactive
- clearance [28]: 29.3 mL/min/kg
- bioavailability [29]: 27.6%
- metabolised at 2 h, up to 10 µM [30]: 0%
- inhibition (INH) [31]: Not Active
- Vd [32]: 2.78 L/kg
- logD at 25 h [33]: 3.81
- Activity (MDA-MB-231): Active
